Experimental data as given in ChEMBL document CHEMBL3044954, “Insecticide Resistance and Insensitive Acetylcholinesterase in Small Brown Planthopper, Laodelphax striatellus” (J Pestic Sci, 2000).

Experiments:
[1] = target: T1, Carboxylesterase (Laodelphax striatella) (UniProt K4JRP7); test: Activity of aliesterase in Laodelphax striatella Kumamoto (small brown planthopper) homogenate assessed per 10 min per ug protein after 10 min by van Asperen method; conditions: Laodelphax striatellus
T1 sequence (whole entry): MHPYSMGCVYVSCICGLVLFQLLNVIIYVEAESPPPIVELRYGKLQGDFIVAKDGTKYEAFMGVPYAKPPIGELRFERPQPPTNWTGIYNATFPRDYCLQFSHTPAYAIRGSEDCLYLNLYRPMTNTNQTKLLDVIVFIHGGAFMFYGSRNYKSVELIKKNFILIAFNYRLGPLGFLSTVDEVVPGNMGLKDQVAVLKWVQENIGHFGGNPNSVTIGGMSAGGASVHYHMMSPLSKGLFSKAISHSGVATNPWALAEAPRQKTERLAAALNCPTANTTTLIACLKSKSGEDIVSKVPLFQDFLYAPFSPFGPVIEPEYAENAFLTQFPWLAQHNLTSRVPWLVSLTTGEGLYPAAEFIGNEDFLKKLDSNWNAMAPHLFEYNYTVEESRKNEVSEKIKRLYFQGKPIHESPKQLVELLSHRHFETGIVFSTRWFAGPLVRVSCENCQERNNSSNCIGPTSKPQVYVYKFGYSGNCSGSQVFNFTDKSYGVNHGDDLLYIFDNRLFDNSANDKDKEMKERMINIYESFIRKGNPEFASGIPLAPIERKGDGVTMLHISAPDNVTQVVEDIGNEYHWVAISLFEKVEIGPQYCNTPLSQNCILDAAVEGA

[2] = target: T1, Carboxylesterase (Laodelphax striatella); test: Ratio of activity of aliesterase in Laodelphax striatella Ibaraki (small brown planthopper) homogenate to activity of aliesterase in susceptible Laodelphax striatella homogenate; conditions: Laodelphax striatellus
[3] = target: T1, Carboxylesterase (Laodelphax striatella); test: Ratio of activity of aliesterase in Laodelphax striatella Kumamoto (small brown planthopper) homogenate to activity of aliesterase in susceptible Laodelphax striatella homogenate; conditions: Laodelphax striatellus
[4] = target: T1, Carboxylesterase (Laodelphax striatella); test: Activity of aliesterase in susceptible Laodelphax striatella (small brown planthopper) homogenate assessed per 10 min per ug protein after 10 min by van Asperen method; conditions: Laodelphax striatellus
[5] = target: T1, Carboxylesterase (Laodelphax striatella); test: Activity of aliesterase in Laodelphax striatella Ibaraki (small brown planthopper) homogenate assessed per 10 min per ug protein after 10 min by van Asperen method; conditions: Laodelphax striatellus
[6] = target: T2, Acetylcholinesterase (Laodelphax striatella, UniProt K4JQ36); test: Inhibition of acetylcholinesterase in susceptible Laodelphax striatella (small brown planthopper) homogenate preincubated for 10 min before substrate addition measured after 10 min by Ellman method; design: species or system Laodelphax striatellus; conditions: read-out: I50
T2 sequence (K4JQ36 whole entry): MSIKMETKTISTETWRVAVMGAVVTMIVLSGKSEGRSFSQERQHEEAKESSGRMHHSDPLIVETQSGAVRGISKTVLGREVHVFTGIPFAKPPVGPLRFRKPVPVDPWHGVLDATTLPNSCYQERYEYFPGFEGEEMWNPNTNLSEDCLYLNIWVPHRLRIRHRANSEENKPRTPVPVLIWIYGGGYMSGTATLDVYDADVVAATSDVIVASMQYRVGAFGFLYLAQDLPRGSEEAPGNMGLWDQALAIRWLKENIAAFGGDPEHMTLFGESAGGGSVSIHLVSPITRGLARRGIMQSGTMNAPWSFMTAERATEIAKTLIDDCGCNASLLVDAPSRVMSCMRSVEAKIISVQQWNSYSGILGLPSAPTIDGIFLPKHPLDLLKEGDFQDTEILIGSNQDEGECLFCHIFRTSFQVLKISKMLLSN

[7] = target: T2, Acetylcholinesterase; test: Inhibition of acetylcholinesterase in Laodelphax striatella Kumamoto (small brown planthopper) homogenate preincubated for 10 min before substrate addition measured after 10 min by Ellman method; design: species or system Laodelphax striatellus; conditions: read-out: I50
[8] = target: T2, Acetylcholinesterase; test: Inhibition of acetylcholinesterase in Laodelphax striatella Ibaraki (small brown planthopper) homogenate preincubated for 10 min before substrate addition measured after 10 min by Ellman method; design: species or system Laodelphax striatellus; conditions: read-out: I50
[9] = tested on: Laodelphax striatellus; test: Ratio of LD50 for Laodelphax striatella Ibaraki (small brown planthopper) to LD50 for susceptible Laodelphax striatella; format: functional
[10] = tested on: Laodelphax striatellus; test: Insecticidal activity against Laodelphax striatella Ibaraki (small brown planthopper) assessed as mortality compound treated topically on dorsal side; conditions: topical
[11] = tested on: Laodelphax striatellus; test: Insecticidal activity against Laodelphax striatella Kumamoto (small brown planthopper) assessed as mortality compound treated topically on dorsal side; conditions: topical
[12] = tested on: Laodelphax striatellus; test: Ratio of LD50 for Laodelphax striatella Kumamoto (small brown planthopper) to LD50 for susceptible Laodelphax striatella; format: functional
[13] = tested on: Laodelphax striatellus; test: Insecticidal activity against susceptible Laodelphax striatella (small brown planthopper) assessed as mortality compound treated topically on dorsal side; format: functional; conditions: topical
[14] = target: Acetylcholinesterase (Laodelphax striatella) (UniProt K4JQ36); test: Ratio of I50 of acetylcholinesterase in Laodelphax striatella Ibaraki (small brown planthopper) homogenate to I50 for acetylcholinesterase in susceptible Laodelphax striatella homogenate; conditions: Laodelphax striatellus
Sequence of Acetylcholinesterase (Laodelphax striatella) (K4JQ36 1-426): as the sequence (K4JQ36 whole entry) above

[15] = target: Acetylcholinesterase (Laodelphax striatella) (UniProt K4JQ36); test: Ratio of I50 of acetylcholinesterase in Laodelphax striatella Kumamoto (small brown planthopper) homogenate to I50 for acetylcholinesterase in susceptible Laodelphax striatella homogenate; conditions: Laodelphax striatellus

Row | Compound | IC50 [6] | IC50 [7] | IC50 [8] | Ratio [9] | LD50 [10] | LD50 [11] | Ratio [12] | LD50 [13] | further results
1 | CC(=O)Oc1cccc2ccccc12 | – | – | – | – | – | – | – | – | Activity [1]: 29 nmol; Ratio [2]: 4.1; Ratio [3]: 4.3; Activity [4]: 6.6 nmol; Activity [5]: 27 nmol
2 | CNC(=O)Oc1cccc2ccccc12 [CARBARIL] | 48 nM | 310 nM | 48 nM | – | – | – | – | – | –
3 | CNC(=O)Oc1cccc2c1OC(C)(C)C2 [CARBOFURAN] | – | – | – | 3.3 | 1.7 mg/kg | 20 mg/kg | 39 | 0.51 mg/kg | –
4 | CCCCN(CCCC)SN(C)C(=O)Oc1cccc2c1OC(C)(C)C2 [CARBOSULFAN] | – | – | – | – | – | 42 mg/kg | 19 | 2.2 mg/kg | –
5 | CCOP(=O)(OCC)Oc1cc(C)nc(C(C)C)n1 [DIAZOXON] | 170 nM | 400 nM | 190 nM | – | – | – | – | – | Ratio [14]: 1.1; Ratio [15]: 2.4
6 | CCOP(=S)(OCC)Oc1cc(C)nc(C(C)C)n1 [DIMPYLATE] | – | – | – | 3.3 | 28 mg/kg | 74 mg/kg | 8.7 | 8.5 mg/kg | –
7 | CCOc1ccc(C(C)(C)COCc2cccc(Oc3ccccc3)c2)cc1 [ETOFENPROX] | – | – | – | 1.1 | 1.7 mg/kg | 2.7 mg/kg | 1.7 | 1.6 mg/kg | –
8 | COP(=S)(OC)Oc1ccc([N+](=O)[O-])c(C)c1 [FENITROTHION] | – | – | – | 4.2 | 27 mg/kg | 38 mg/kg | 5.9 | 6.4 mg/kg | –
9 | COP(=O)(OC)Oc1ccc([N+](=O)[O-])c(C)c1 [FENITROXON] | 350 nM | 730 nM | 360 nM | – | – | – | – | – | Ratio [14]: 1; Ratio [15]: 2.1
10 | CCC(C)c1ccccc1OC(=O)NC (centres undefined) [FENOBUCARB] | 29 nM | 140 nM | 26 nM | 1.8 | 33 mg/kg | 320 mg/kg | 18 | 18 mg/kg | Ratio [14]: 0.9; Ratio [15]: 4.8
11 | CC(C)C(C(=O)OC(C#N)c1cccc(Oc2ccccc2)c1)c1ccc(Cl)cc1 (centres undefined) [FENVALERATE] | – | – | – | 1.4 | 1.9 mg/kg | – | – | 1.4 mg/kg | –
12 | O=[N+]([O-])/N=C1\NCCN1Cc1ccc(Cl)nc1 [IMIDACLOPRID] | – | – | – | 1 | 0.26 mg/kg | 0.61 mg/kg | 2.3 | 0.26 mg/kg | –
13 | CCOC(=O)CC(SP(=S)(OC)OC)C(=O)OCC (centres undefined) [MALATHION] | – | – | – | 5.9 | 130 mg/kg | 380 mg/kg | 17 | 22 mg/kg | –
